Source: patent US6858638B2, “Substituted indazoles, compositions containing them, method of production and use” (Aventis Pharma S.A., priority 2002, dated 2005)

Assays:
human KDR enzyme = target: T1, human KDR enzyme (Homo sapiens, UniProt P35968); assay: KDR substrate (PLCγ) phosphorylation, scintillation assay; type: biochemical; conditions: 10 μM; read-out: KDR % inhib at 10 μM
T1 construct: The cytoplasmic domain of the human KDR enzyme; GST; made in house; host or cells: SF21 insect cells (baculovirus)
T1 sequence (P35968 786-1356 limits assumed): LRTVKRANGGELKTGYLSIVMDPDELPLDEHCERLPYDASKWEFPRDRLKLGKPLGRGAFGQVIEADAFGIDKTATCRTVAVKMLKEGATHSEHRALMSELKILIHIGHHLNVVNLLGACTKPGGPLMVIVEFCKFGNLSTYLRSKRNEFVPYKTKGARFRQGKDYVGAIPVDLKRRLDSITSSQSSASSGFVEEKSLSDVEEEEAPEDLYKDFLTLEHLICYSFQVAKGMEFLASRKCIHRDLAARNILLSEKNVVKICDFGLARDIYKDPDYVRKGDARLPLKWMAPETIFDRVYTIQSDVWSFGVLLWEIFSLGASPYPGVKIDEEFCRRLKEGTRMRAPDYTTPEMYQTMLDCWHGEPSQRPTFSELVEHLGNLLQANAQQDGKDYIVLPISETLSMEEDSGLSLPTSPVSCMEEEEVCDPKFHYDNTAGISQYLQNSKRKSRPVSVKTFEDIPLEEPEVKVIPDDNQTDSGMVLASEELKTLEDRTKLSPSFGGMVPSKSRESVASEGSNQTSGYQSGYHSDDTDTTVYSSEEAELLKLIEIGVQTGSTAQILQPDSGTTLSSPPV
Summary of the method: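 Values are percent inhibition relative to the compound-free control, read by scintillation counting of 33P incorporation after EDTA stop. Baculovirus/SF21-expressed GST-KDR cytoplasmic domain (100 ng) acted for 1 h at 37 °C in pH 7.2 MOPS kinase buffer. The substrate was GST-PLCγ SH2-SH3 (2 μg), added with γ33P-ATP and 2 μM unlabeled ATP.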

c-Src protein = assay: Src kinase phosphorylation of biotinylated cdc2 substrate, fluorescence (DELFIA); type: biochemical, human
Method: The inhibition of the Src kinase is evaluated by measuring the phosphorylation of the biotinylated cdc2 substrate (Pierce) detected by fluorescence (DELFIA) using an antiphosphotyrosine antibody labeled with Europium, in 96-well Wallac plates. The c-Src protein used is a recombinant human protein produced in Baculovirus, comprising the SH3 and SH2 and the catalytic domains. The enzyme, the substrate and the various concentrations of test compounds are placed in the well in a 50 mM Tris buffer containing 10 mM MgCl2. The reaction is initiated by adding 10 μM of ATP. After incubation for 60 minutes at 30° C., the reaction is stopped by adding 75 mM EDTA. 50 μl are taken from each well and transferred into a plate coated with streptavidin. After incubation for 30 minutes at 25° C., the wells are washed with a washing buffer (Wallac) and then the antiphosphotyrosine antibody (PY20-Europium [Perkin Elmer]) is added in a volume of 75 μl. The plate is incubated for 30 minutes at 25° C. and then an “Enhancer” solution (Wallac) is added before reading the fluorescence using a fluorimeter (Perkin Elmer). The background noise is evaluated in triplicate in wells containing the substrate and the antibody in the absence of enzyme. The activity of the enzyme is measured (in triplicate) in the wells containing all the reagents in the absence of compound. The inhibition of the Src activity is expressed as percentage inhibition of the activity of the control determined in the absence of compound. The compound PP2 (Calbiochem) is included at various concentrations in each experiment as an inhibition control.

human FAK = target: T2, human FAK (Homo sapiens, UniProt Q05397); assay: FAK autophosphorylation inhibition, time resolved fluorescence (HTRF) assay; type: biochemical; conditions: 10 μM (values without asterisk); read-out: FAK % inhib at 10 μM
T2 construct: The complete cDNA of human FAK; made in house; host or cells: baculovirus expression system (vector pFastBac HTc)
T2 sequence (Q05397 whole entry): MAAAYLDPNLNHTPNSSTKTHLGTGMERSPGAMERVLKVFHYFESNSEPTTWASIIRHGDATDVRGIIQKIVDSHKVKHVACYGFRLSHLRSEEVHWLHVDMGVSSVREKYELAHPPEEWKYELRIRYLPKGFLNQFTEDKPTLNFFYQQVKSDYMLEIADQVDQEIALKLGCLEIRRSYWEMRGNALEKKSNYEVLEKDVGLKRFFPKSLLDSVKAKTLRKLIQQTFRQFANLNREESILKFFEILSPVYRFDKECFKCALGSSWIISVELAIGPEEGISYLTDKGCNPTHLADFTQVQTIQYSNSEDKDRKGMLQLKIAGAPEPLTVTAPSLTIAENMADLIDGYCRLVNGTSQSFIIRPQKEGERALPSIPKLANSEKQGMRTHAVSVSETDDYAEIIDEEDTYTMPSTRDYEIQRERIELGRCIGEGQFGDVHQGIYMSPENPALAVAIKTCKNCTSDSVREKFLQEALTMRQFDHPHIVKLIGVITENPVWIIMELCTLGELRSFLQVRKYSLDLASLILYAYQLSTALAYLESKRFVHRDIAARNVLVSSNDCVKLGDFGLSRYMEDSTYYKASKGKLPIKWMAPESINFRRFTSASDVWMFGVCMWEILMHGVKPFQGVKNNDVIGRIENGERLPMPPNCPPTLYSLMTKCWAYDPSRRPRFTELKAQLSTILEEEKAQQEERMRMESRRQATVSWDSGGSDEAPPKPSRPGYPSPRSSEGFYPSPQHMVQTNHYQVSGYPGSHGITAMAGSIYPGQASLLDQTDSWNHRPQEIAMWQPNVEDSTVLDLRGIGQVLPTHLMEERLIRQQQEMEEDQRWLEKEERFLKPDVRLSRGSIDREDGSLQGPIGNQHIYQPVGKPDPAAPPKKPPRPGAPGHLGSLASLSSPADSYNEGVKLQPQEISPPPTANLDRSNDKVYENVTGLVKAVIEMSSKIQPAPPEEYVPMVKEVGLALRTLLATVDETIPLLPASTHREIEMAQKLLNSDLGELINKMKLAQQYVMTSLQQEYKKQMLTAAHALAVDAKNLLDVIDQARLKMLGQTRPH
Summary of the method: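 Autophosphorylation was detected by europium-cryptate anti-pTyr and XL665 anti-His energy transfer, percent inhibition from the 665/620 ratio relative to no-compound wells. Enzyme: His-FAK full length, 6.6 µg/ml, incubated 1 h at 37 °C, pH 7.2, 15 µM ATP.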

Aurora2 kinase = target: T3, Aurora2 kinase (Homo sapiens, UniProt O14965); assay: Aurora2 kinase radioactivity scintillation assay using nickel chelate (NuMA substrate); type: biochemical; conditions: 10 μM; read-out: Aurora2 % inhib at 10 μM
T3 construct: A complete recombinant Aurora2 enzyme; His tag (N); made in house; host or cells: E. coli
T3 sequence (O14965 1-403): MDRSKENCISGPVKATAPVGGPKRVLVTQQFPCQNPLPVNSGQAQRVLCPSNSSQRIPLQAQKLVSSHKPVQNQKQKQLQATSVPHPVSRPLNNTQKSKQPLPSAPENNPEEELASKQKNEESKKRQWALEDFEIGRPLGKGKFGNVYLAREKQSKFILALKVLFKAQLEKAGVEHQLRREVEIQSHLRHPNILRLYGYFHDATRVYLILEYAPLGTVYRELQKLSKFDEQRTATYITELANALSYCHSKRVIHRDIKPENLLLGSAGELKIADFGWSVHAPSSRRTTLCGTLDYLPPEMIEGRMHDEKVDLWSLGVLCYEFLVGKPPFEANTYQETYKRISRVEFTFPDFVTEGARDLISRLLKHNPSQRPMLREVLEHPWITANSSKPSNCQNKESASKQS
Summary of the method: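 Read-out is 33P incorporation into His-NuMA (Q1687-H2101, 0.5 μM) captured on nickel chelate, after 30 min at 37 °C with 0.02 μM His-Aurora2 and 1 μM ATP. Expressed as percentage inhibition of uncompounded control activity, background subtracted.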

HCT-15 cells = conditions: concentration of 100 μM; cited from earlier work
NCI-H460 cells = conditions: concentration of 100 μM; cited from earlier work

Row | SMILES | inhibition at 10 µM (human KDR enzyme) | SRC % inhib at 10 μM (c-Src protein) | inhibition at 10 µM (human FAK) | inhibition at 10 µM (Aurora2 kinase) | melting point | growth inhibition (HCT-15 cells) | growth inhibition (NCI-H460 cells)
1 | O=S(=O)(Nc1ccc2[nH]nc(-c3ccccc3)c2c1)c1cccnc1 [Example 96, N-(3-Phenyl-1H-indazol-5-yl)pyridine-3-sulfonamide] | 91% | 83% | 67% | 100% | 225 °C |  | 
2 | O=[N+]([O-])c1cccc(S(=O)(=O)Nc2ccc3[nH]nc(-c4ccccc4)c3c2)c1 [Example 97, 3-Nitro-N-(3-phenyl-1H-indazol-5-yl)benzenesulfonamide] | 96% | 76% | 50% | 93% | 228 °C |  | 
3 | COc1cc(S(=O)(=O)Nc2ccc3[nH]ncc3c2)cc(OC)c1OC [N-(1H-indazol-5-yl)-3,4,5-trimethoxybenzenesulfonamide] |  |  |  |  |  | 47.6% | 18.5%
4 | O=S(=O)(Nc1ccc2[nH]nc(-c3ccccc3)c2c1)c1cc(Cl)cc(Cl)c1 [Example 137, 3,5-Dichloro-N-(3-phenyl-1H-indazol-5-yl)-benzenesulfonamide] | 96% | 59% | 53% | 80% |  |  | 

Now from value to molecule, other results behind:

Row | inhibition at 10 µM (human KDR enzyme) | SRC % inhib at 10 μM (c-Src protein) | inhibition at 10 µM (human FAK) | inhibition at 10 µM (Aurora2 kinase) | melting point | SMILES | growth inhibition (HCT-15 cells) | growth inhibition (NCI-H460 cells)
5 | 41% | 86% | 30% | 72% | 235 °C | CS(=O)(=O)c1ccccc1S(=O)(=O)Nc1ccc2[nH]nc(-c3csc4ccccc34)c2c1 [Example 64, N-(3-Benzo[b]thiophen-3-yl-1H-indazol-5-yl)-2-methylsulfonylbenzenesulfonamide] |  | 
6 | 38% | 40% | 87% | 100% | 221 °C | CS(=O)(=O)c1ccccc1S(=O)(=O)Nc1ccc2[nH]nc(-c3ccc4ccccc4c3)c2c1 [Example 73, 2-Methylsulfonyl-N-(3-naphthalen-2-yl-1H-indazol-5-yl)-benzenesulfonamide] |  | 
7 | 97% | 43% | 38% | 80% |  | O=S(=O)(Nc1ccc2[nH]nc(-c3ccccc3)c2c1)c1cccc(Br)c1 [Example 141, 3-Bromo-N-(3-phenyl-1H-indazol-5-yl)-benzenesulfonamide] |  | 
8 | 41% | 77% | 21% | 78% | 186 °C | CS(=O)(=O)c1ccccc1S(=O)(=O)Nc1ccc2[nH]nc(-c3cccc4ccccc34)c2c1 [Example 72, 2-Methylsulfonyl-N-(3-naphthalen-1-yl-1H-indazol-5-yl)-benzenesulfonamide] |  | 
